One assay addresses T1, PeaPOR (Lathyrus oleraceus, UniProt Q01289).
T1 construct: gene 3PCR; transit peptide removed; pET15b
T1 sequence (Q01289 65-399): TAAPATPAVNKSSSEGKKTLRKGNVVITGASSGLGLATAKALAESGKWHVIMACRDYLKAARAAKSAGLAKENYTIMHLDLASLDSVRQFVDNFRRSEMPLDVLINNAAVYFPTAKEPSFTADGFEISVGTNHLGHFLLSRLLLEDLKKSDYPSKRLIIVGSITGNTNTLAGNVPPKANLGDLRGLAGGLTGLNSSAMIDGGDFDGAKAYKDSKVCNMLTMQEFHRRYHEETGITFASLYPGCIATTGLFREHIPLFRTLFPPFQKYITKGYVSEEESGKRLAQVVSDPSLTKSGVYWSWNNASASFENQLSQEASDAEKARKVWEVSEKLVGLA
In words: […] K Pchlide fluorescence in darkness, F648/F635 ratio vs NADPH, hyperbolic fit. The format is binding. The conditions noted are these: lipid-free; 5 μM Pchlide, 15 μM LPOR, pH 7.1, room-temperature dark incubation; apparent parameter, exact value in supplement; read-out: KM^D.

The next assay deals with T2, HaPOR2 (Helianthus annuus, UniProt A0A251TWA4).
T2 construct: gene PORA; transit peptide removed; pET15b
T2 sequence (A0A251TWA4 53-387): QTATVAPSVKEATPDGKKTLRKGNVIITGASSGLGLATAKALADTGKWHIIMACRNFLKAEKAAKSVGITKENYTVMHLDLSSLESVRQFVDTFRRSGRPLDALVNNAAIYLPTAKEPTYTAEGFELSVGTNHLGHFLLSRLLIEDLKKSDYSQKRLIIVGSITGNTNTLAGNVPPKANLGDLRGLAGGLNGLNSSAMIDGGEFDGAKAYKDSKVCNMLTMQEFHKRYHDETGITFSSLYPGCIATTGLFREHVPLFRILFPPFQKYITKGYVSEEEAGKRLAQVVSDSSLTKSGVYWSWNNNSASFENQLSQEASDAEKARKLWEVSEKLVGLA
In words: biochemical. As to conditions: 5 uM Pchlide, 15 uM LPOR. As to the method: (§1) (Figs. 3A, S2). […] The resulting plots resembled saturation curves, to which a hyperbolic function similar to the Michaelis–Menten equation could be fitted (Figs. 3B, S3, Materials and Methods). […] However, KM^L values were consistently lower than KM^D values. […] The addition of 400 μM OPT lipids lowered the KM^D constant for all isoforms, except for SlPOR1, SlPOR3, HaPOR1, HaPOR2, and PeaPOR, where the constant remained unchanged within error estimates. […] Shaded areas represent the SD between replicates. […] A fit of a modified Michaelis–Menten equation is shown, along with the graphical representation of KM^D (B) or KM^L (C). Spectra corresponding to the given F648/F635 values (B) or F Chlide/F Pchlide values (C) are shown on the right side of the plot. D, relationship between KM^D and KM^L for investigated isoforms. The overall distribution of data points is shown in gray. Error bars represent the uncertainty associated with the fitted constant KM^x. Closed symbols represent constants determined for samples not supplemented with lipids, while open symbols these determined in the presence of 400 μM OPT lipids. LPOR, light-dependent protochlorophyllide oxidoreductase; Pchlide, protochlorophyllide; Chlide, chlorophyllide.

For the next assay, the target named is T3, HaPOR1 (Helianthus annuus, UniProt A0A251T841).
T3 construct: gene PORA; transit peptide removed; pET15b
T3 sequence (A0A251T841 64-398): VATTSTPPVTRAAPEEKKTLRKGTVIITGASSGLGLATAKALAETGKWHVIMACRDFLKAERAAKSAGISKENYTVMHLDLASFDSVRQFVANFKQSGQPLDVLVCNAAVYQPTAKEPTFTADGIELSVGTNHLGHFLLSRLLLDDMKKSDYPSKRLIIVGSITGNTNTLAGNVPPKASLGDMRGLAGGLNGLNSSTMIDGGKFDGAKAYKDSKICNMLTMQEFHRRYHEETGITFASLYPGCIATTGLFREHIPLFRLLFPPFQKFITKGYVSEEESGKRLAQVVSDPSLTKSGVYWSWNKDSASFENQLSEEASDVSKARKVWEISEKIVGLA
In words: biochemical. The conditions noted are these: 400 uM OPT lipids, 5 uM Pchlide, 15 uM LPOR. As to the method:
as §1

In another assay the target is T4, SlPOR3 (Solanum lycopersicum, UniProt A0A3Q7J565).
T4 construct: gene LOC101248079; transit peptide removed; pET15b
T4 sequence (A0A3Q7J565 63-397): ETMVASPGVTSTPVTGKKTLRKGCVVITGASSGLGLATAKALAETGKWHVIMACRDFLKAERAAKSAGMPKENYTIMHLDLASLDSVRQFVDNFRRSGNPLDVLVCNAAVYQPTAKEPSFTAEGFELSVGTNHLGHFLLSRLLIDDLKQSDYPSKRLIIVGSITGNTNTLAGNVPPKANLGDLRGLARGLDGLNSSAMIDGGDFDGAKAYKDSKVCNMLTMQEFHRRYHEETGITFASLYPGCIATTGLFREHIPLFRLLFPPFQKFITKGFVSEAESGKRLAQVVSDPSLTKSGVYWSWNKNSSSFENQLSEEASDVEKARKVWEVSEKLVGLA
The conditions noted are these: 5 uM Pchlide, 15 uM LPOR, binder. How it is done:
as §1

Another assay addresses T5, SlPOR1 (Solanum lycopersicum, UniProt A0A3Q7HEX8).
T5 construct: gene POR2; transit peptide removed; pET15b
T5 sequence (A0A3Q7HEX8 65-399): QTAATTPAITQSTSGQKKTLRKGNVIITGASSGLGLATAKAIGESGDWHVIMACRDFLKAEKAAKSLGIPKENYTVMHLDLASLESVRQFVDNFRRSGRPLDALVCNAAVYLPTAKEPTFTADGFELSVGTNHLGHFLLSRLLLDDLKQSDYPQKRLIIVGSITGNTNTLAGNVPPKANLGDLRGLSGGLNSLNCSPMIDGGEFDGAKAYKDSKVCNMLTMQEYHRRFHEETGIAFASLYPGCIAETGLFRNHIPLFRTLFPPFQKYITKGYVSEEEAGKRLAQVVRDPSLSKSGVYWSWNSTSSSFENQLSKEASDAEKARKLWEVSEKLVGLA
As to conditions: 5 uM Pchlide, 15 uM LPOR, binder. As to the method:
as §1

Where two headings read alike, the source gives them in different places. Where only a bound is given, the exact number is not on record here.

As to `NC(=O)C1=CN([C@@H]2O[C@H](COP(=O)(O)OP(=O)(O)OC[C@H]3O[C@@H](n4cnc5c(N)ncnc54)[C@H](OP(=O)(O)O)[C@@H]3O)[C@@H](O)[C@H]2O)C=CC1` [NADPH], the Kd on PeaPOR is under 10 µM. Moreover, the Dark Michaelis-like constant (KM^D) at HaPOR2 (400 uM OPT lipids) was determined as 2.2 µM. Further, the figures for the apparent Michaelis constant in the dark (KM^D) on HaPOR2 (no lipids), on SlPOR1 (400 uM OPT lipids) and on SlPOR1 (no lipids) were 9.4 µM, 7.2 µM and 8.6 µM, respectively. The apparent Michaelis constant KM^D (dark) at HaPOR1 was 16.9 µM. On SlPOR3 (400 uM OPT lipids), the apparent Michaelis constant in dark (KM^D) was 3 µM. For the same compound, the apparent KM (dark, KM^D) on SlPOR3 (no lipids) worked out at 4.9 µM.

The values above are taken from paper PMC11930087, “Mobility of four structural regions drives isoform-specific properties of photoenzyme LPOR in plants” (The Journal of Biological Chemistry, 2025).
